# Results: patent publication US9926281B2 (priority 2014, dated 2018)
# pIC50: −log10 of the molar value.
# Key:
# [1] = molecular target: human TACE (Homo sapiens (Human), UniProt P78536); details: read-out: TACE potency IC50
# [2] = molecular target: human ADAMTS-5 (Homo sapiens (Human), UniProt Q9UNA0); details: read-out: hADAMTS-5 potency IC50
# Protocol: Finally, the fluorescence is read on the Envision (Perkin Elmer) after an incubation of 90 min at 37° C.
# [3] = molecular target: human MMP14 (Homo sapiens (Human), UniProt P50281); details: read-out: hMMP-14 potency IC50
# Sequence of human TACE (P78536 whole entry, looked up, change not shown): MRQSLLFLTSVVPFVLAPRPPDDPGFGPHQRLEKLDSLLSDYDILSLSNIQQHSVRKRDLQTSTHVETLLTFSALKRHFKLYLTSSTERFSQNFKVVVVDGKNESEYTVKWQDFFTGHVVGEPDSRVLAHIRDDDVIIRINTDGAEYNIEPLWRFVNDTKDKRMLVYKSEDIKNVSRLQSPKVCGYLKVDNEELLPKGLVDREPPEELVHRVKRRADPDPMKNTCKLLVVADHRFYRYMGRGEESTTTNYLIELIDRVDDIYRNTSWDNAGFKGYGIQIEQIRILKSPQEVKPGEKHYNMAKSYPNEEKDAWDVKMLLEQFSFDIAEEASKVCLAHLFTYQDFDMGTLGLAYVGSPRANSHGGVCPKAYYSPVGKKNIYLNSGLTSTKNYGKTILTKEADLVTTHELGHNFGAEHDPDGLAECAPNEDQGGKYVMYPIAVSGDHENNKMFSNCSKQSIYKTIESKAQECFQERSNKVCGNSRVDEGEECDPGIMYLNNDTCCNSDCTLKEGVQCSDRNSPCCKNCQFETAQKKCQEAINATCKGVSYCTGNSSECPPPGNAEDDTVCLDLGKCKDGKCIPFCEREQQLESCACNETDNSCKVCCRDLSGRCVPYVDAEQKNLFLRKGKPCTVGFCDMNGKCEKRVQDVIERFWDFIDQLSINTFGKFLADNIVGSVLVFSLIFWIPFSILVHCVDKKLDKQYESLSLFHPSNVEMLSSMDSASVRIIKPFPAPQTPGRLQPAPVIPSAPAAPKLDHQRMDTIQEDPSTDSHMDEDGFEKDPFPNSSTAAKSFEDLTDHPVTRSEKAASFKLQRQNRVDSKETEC
# Sequence of human ADAMTS-5 (Q9UNA0 262-930): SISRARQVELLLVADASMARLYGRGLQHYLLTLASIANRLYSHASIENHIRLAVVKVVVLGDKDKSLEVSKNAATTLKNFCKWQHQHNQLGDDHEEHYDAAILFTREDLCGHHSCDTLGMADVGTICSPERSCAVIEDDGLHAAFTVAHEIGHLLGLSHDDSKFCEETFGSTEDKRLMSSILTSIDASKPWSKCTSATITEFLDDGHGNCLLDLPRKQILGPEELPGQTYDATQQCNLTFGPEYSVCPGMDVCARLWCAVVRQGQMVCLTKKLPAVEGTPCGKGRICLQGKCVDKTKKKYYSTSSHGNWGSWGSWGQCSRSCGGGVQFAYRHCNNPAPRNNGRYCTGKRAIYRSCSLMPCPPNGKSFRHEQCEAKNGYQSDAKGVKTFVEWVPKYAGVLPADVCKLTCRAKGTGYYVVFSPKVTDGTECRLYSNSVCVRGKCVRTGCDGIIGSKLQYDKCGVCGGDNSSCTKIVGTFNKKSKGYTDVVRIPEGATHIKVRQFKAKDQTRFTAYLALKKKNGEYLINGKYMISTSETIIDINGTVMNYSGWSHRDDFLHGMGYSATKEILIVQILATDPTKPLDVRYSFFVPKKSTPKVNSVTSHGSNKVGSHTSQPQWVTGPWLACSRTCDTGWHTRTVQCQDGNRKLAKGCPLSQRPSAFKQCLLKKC
SMILES,pIC50 [1],pIC50 [2],pIC50 [3]
"CC(CC1NC(=O)NC1=O)C(=O)N1CCN(c2ccc(F)c(F)c2)[C@@H](C)C1 (stereo partly drawn) [compound 251, 5-[3-[(3S)-4-(3,4-difluorophenyl)-3-methyl-piperazin-1-yl]-2-methyl-3-oxo-propyl]imidazolidine-2,4-dione]",< 4.92,7.03,< 5.40
"C[C@H]1CN(C(=O)CCC2(C3CC3)NC(=O)NC2=O)CCN1c1cccnc1 (stereo partly drawn) [compound 259, 5-cyclopropyl-5-[3-[(3S)-3-methyl-4-(3-pyridyl)piperazin-1-yl]-3-oxo-propyl]imidazolidine-2,4-dione]",< 4.70,6.65,< 4.70
"C[C@H]1CN(C(=O)CCC2(C3CC3)NC(=O)NC2=O)CCN1c1cncc(Cl)c1 (stereo partly drawn) [compound 260, 5-[3-[(3S)-4-(5-chloro-3-pyridyl)-3-methyl-piperazin-1-yl]-3-oxo-propyl]-5-cyclopropyl-imidazolidine-2,4-dione]",< 4.70,6.90,< 4.70
"C[C@H]1CN(C(=O)CCC2(C3CC3)NC(=O)NC2=O)CCN1c1cncc(F)c1 (stereo partly drawn) [compound 261, 5-cyclopropyl-5-[3-[(3S)-4-(5-fluoro-3-pyridyl)-3-methyl-piperazin-1-yl]-3-oxo-propyl]imidazolidine-2,4-dione]",< 4.70,6.78,< 4.70
"C[C@H]1CN(C(=O)CCC2(C3CC3)NC(=O)NC2=O)CCN1c1cccc(Br)c1 (stereo partly drawn) [compound 270, 5-[3-[(3S)-4-(3-bromophenyl)-3-methyl-piperazin-1-yl]-3-oxo-propyl]-5-cyclopropyl-imidazolidine-2,4-dione]",< 5.40,7.12,< 5.40
"CC(CC1(C)NC(=O)NC1=O)C(=O)N1CCN(c2cncc(Cl)c2)[C@@H](C)C1 (stereo partly drawn) [compound 276, 5-[3-[(3S)-4-(5-chloro-3-pyridyl)-3-methyl-piperazin-1-yl]-2-methyl-3-oxo-propyl]-5-methyl-imidazolidine-2,4-dione]",< 5.40,6.94,< 4.70
"CC(CC1(C)NC(=O)NC1=O)C(=O)N1CCN(c2cncc(F)c2)[C@@H](C)C1 (stereo partly drawn) [compound 277, 5-[3-[(3S)-4-(5-fluoro-3-pyridyl)-3-methyl-piperazin-1-yl]-2-methyl-3-oxo-propyl]-5-methyl-imidazolidine-2,4-dione]",< 5.40,6.82,< 4.70
"C[C@H]1CN(C(=O)CCC2(C3CC3)NC(=O)NC2=O)CCN1c1cccc(-c2cn[nH]c2)c1 (stereo partly drawn) [compound 282, 5-cyclopropyl-5-[3-[(3S)-3-methyl-4-[3-(1H-pyrazol-4-yl)phenyl]piperazin-1-yl]-3-oxo-propyl]imidazolidine-2,4-dione]",< 4.70,6.96,< 4.70
"Cc1ccc(C2(CCC(=O)N3CCN(c4ccc(F)c(Cl)c4)[C@@H](C)C3)NC(=O)NC2=O)cn1 (stereo partly drawn) [compound 287, 5-[3-[(3S)-4-(3-chloro-4-fluoro-phenyl)-3-methyl-piperazin-1-yl]-3-oxo-propyl]-5-(6-methyl-3-pyridyl)imidazolidine-2,4-dione]",< 5.40,7.28,< 5.40
"C[C@H]1CN(C(=O)CCC2(c3ccncc3)NC(=O)NC2=O)CCN1c1ccc(F)c(Cl)c1 (stereo partly drawn) [compound 288, 5-[3-[(3S)-4-(3-chloro-4-fluoro-phenyl)-3-methyl-piperazin-1-yl]-3-oxo-propyl]-5-(4-pyridyl)imidazolidine-2,4-dione]",< 5.40,7.14,< 5.40
"Cc1cccc(C2(CCC(=O)N3CCN(c4cc(F)cc(Cl)c4)[C@@H](C)C3)NC(=O)NC2=O)n1 (stereo partly drawn) [compound 307, 5-[3-[(3S)-4-(3-chloro-5-fluoro-phenyl)-3-methyl-piperazin-1-yl]-3-oxo-propyl]-5-(6-methyl-2-pyridyl)imidazolidine-2,4-dione]",5.44,7.36,< 4.70
